16 molecules from patent US9422285B2, “Substituted pyrazolo[1,5-A]-pyridine-3-carboxamides and use thereof” (Bayer Pharma Aktiengesellschaft, priority 2014, dated 2016) can be followed below.

The structures appear in SMILES notation.

Data set [1] has as its target T1, recombinant guanylate cyclase reporter cell line (Rattus norvegicus, UniProt P19686+P20595).
T1 construct: expressed in transfected cells
T1 sequence (P19686 1-690): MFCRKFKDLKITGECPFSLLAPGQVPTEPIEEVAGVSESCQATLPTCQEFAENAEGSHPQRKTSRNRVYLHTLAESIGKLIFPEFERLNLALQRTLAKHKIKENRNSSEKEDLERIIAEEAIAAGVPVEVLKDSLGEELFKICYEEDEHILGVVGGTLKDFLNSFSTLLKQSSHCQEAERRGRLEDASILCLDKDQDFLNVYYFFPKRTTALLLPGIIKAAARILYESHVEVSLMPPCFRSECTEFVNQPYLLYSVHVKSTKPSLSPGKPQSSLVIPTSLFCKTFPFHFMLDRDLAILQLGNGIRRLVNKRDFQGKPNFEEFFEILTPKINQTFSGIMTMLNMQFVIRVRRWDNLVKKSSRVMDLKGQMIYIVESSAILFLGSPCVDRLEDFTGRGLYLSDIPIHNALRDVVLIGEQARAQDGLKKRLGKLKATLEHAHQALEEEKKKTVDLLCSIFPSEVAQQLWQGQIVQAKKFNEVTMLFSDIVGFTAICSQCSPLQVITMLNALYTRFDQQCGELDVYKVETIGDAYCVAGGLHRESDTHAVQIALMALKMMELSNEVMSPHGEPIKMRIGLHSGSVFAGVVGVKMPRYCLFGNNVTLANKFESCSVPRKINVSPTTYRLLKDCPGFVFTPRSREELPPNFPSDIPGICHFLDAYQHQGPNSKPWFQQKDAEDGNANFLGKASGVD
T1 sequence (P20595 1-619): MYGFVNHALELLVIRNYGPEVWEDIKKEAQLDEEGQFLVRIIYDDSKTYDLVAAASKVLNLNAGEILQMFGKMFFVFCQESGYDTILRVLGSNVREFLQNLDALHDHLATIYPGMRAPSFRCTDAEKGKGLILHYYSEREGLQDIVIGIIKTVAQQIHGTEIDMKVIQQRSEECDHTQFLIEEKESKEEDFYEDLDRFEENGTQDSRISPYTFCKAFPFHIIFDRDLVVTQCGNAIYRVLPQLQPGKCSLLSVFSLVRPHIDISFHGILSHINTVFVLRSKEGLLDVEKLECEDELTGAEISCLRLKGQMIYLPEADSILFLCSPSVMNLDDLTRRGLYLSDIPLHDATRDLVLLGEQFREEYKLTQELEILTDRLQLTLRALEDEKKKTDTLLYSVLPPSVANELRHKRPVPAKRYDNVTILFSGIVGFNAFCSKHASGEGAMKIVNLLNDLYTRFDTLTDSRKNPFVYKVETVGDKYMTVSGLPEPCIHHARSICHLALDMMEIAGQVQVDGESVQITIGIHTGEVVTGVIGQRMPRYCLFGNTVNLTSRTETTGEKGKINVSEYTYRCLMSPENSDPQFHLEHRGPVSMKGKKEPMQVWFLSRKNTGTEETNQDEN
Put plainly: Effect on a recombinant guanylate cyclase reporter cell line (B-2). In kind it is cell-based. To be noted: in some cases mean values for individual determinations. The method, then: B-2. Effect on a Recombinant Guanylate Cyclase Reporter Cell Line
The cellular effect of the inventive compounds is determined using a recombinant guanylate cyclase reporter cell line, as described in F. Wunder et al., Anal. Biochem. 339, 104-112 (2005).
Representative MEC values (MEC=minimum effective concentration) for the inventive compounds are shown in the table below (in some cases as mean values for individual determinations): […]

Data set [2] is described as follows: Pharmacokinetic parameters following intravenous administration in rats (B-6). In kind it is in vivo, male Wistar rats. To be noted: for MRT / half-life: male, Wistar, rat, plasma; for MRT: mean residence time; for half-life: terminal half-life. From the text: • Klaus Witte, Kai Hu, Johanna Swiatek, Claudia Müssig, Georg Ertl and Bjorn Lemmer: Experimental heart failure in rats: effects on cardiovascular circadian rhythms and on myocardial β-adrenergic signaling. Cardiovasc Res 47 (2): […], 2000; Kozo Okamoto: Spontaneous hypertension in rats. Int Rev Exp Pathol 7: 227-270, 1969; Maarten van den Buuse: Circadian Rhythms of Blood Pressure, Heart Rate, and Locomotor Activity in Spontaneously Hypertensive Rats as Measured With Radio-Telemetry. Physiology & Behavior 55(4): 783-787, 1994 B-6. Determination of Pharmacokinetic Parameters Following Intravenous and Oral Administration
The pharmacokinetic parameters of the inventive compounds are determined in male CD-1 mice, male Wistar rats and female beagles. Intravenous administration in the case of mice and rats is effected by means of a species-specific plasma/DMSO formulation, and in the case of dogs by means of a water/PEG400/ethanol formulation. In all species, oral administration of the dissolved substance is performed via gavage, based on a water/PEG400/ethanol formulation. The removal of blood from rats is simplified by inserting a silicone catheter into the right Vena jugularis externa prior to substance administration. The operation is effected at least one day prior to the experiment with isofluran anaesthesia and administration of an analgesic (atropine/rimadyl (3/1) 0.1 ml s.c.). The blood is taken (generally more than 10 time points) within a time window including terminal time points of at least 24 to a maximum of 72 hours after substance administration. The blood is removed into heparinized tubes. The blood plasma is then obtained by centrifugation; if required, it can be stored at −20° C. until further processing.
An internal standard (which may also be a chemically unrelated substance) is added to the samples of the inventive compounds, calibration samples and qualifiers, and there follows protein precipitation by means of acetonitrile in excess. Addition of a buffer solution matched to the LC conditions, and subsequent vortexing, is followed by centrifugation at 1000 g. The supernatant is analysed by means of LC-MS/MS using C18 reversed-phase columns and variable mobile phase mixtures. The substances are quantified via the peak heights or areas from extracted ion chromatograms of specific selected ion monitoring experiments.
The plasma concentration/time plots determined are used to calculate the pharmacokinetic parameters such as AUC, Cmax, t1/2 (terminal half-life), F (bioavailability), MRT (mean residence time) and CL (clearance), by means of a validated pharmacokinetic calculation program.
Since the substance quantification is performed in plasma, it is necessary to determine the blood/plasma distribution of the substance in order to be able to adjust the pharmacokinetic parameters correspondingly. For this purpose, a defined amount of substance is incubated in heparinized whole blood of the species in question in a rocking roller mixer for 20 min. After centrifugation at 1000 g, the plasma concentration is measured (by means of LC-MS/MS; see above) and determined by calculating the ratio of the Cblood/Cplasma value.

Regarding `CCCC(C)(N)CNC(=O)c1c(C2CC2)nn2c(OCc3c(F)cccc3F)cc(C)cc12` (single isomer, unassigned) [Example 55, ent-N-(2-Amino-2-methylpentyl)-2-cyclopropyl-7-[(2,6-difluorobenzyl)oxy]-5-methylpyrazolo[1,5-a]pyridine-3-carboxamide], in data set [1], the “MEC (minimum effective concentration)” value was found to be 0.1 µM. In data set [2], the AUCnormal came to 0.37 kg·h/L, the CLblood stood at 2.76 L/h/kg, the MRT stood at 3.5 h and the half-life is 156 min. For the molecule `CCCC(C)(N)CNC(=O)c1c(C2CC2)nn2c(OCc3c(F)ccc(F)c3F)cc(C)cc12` (single isomer, unassigned; enantiomer b) [Example 169, ent-N-(2-Amino-2-methylpentyl)-2-cyclopropyl-5-methyl-7-[(2,3,6-trifluorobenzyl)oxy]pyrazolo[1,5-a]pyridine-3-carboxamide (Enantiomer B)], in data set [1], the “MEC (minimum effective concentration)” value was found to be 0.2 µM. In data set [2], this molecule showed an AUCnormal of 0.44 kg·h/L, a CLblood of 2.21 L/h/kg, a mean residence time MRT of 4.9 h and a half-life of 240 min.

As to `Cc1cc(OCc2c(F)cccc2F)n2nc(C)c(C(=O)NC3CCCc4ccccc43)c2c1` (racemic) [Example 138, rac-7-[(2,6-Difluorobenzyl)oxy]-2,5-dimethyl-N-(1,2,3,4-tetrahydronaphthalen-1-yl)pyrazolo[1,5-a]pyridine-3-carboxamide], the “MEC (minimum effective concentration)” value in data set [1] was determined as 0.1 µM. Same read-out and setting: with `Cc1cc(OCc2c(F)cccc2F)n2nc(C)c(C(=O)NC34CCC(C(=O)O)(CC3)CC4)c2c1` [Example 153, 4-[({7-[(2,6-Difluorobenzyl)oxy]-2,5-dimethylpyrazolo[1,5-a]pyridin-3-yl}carbonyl)amino]bicyclo[2.2.2]octane-1-carboxylic Acid] the figure was 3.0 µM; with `Cc1cc(OCc2c(F)cccc2F)n2nc(C)c(C(=O)NC3CCOc4c(C#N)cccc43)c2c1` (racemic) [Example 140, rac-N-(8-Cyano-3,4-dihydro-2H-chromen-4-yl)-7-[(2,6-difluorobenzyl)oxy]-2,5-dimethylpyrazolo[1,5-a]pyridine-3-carboxamide], 0.3 µM. With `CCCC(C)(N)CNC(=O)c1c(C)nn2c(OCc3c(F)cccc3Cl)cc(C)cc12` (racemic) [Example 164], the “MEC (minimum effective concentration)” value in data set [1] came to 1.0 µM. In the case of `Cc1cc(OCc2c(F)cccc2F)n2nc(C)c(C(=O)NCC3CNCCO3)c2c1` (racemic) [Example 142, rac-7-[(2,6-Difluorobenzyl)oxy]-2,5-dimethyl-N-(morpholin-2-ylmethyl)pyrazolo[1,5-a]pyridine-3-carboxamide], the “MEC (minimum effective concentration)” value in data set [1] came to 10 µM. On the same count and under the same terms, the value for `COC(=O)C12CC3CC(CC(CNC(=O)c4c(C)nn5c(OCc6c(F)cccc6F)cc(C)cc45)(C3)C1)C2` [Example 155, Methyl 3-{[({7-[(2,6-difluorobenzyl)oxy]-2,5-dimethylpyrazolo[1,5-a]pyridin-3-yl}carbonyl)amino]methyl}adamantane-1-carboxylate] was 1.0 µM. For the molecule `Cc1cc(OCc2c(F)cccc2F)n2nc(C)c(C(=O)NNC(=O)CN3CCCCC3)c2c1` [Example 174, 7-[(2,6-Difluorobenzyl)oxy]-2,5-dimethyl-N′-(piperidin-1-ylacetyl)pyrazolo[1,5-a]pyridine-3-carbohydrazide], the “MEC (minimum effective concentration)” value in data set [1] came out at 1.0 µM. Same read-out and setting: the value for `Cc1cc(OCc2c(F)ccc(F)c2F)n2nc(C)c(C(=O)NCc3ccccc3-n3ccnc3)c2c1` [Example 32, N-[2-(1H-Imidazol-1-yl)benzyl]-2,5-dimethyl-7-[(2,3,6-trifluorobenzyl)oxy]pyrazolo[1,5-a]pyridine-3-carboxamide] was 0.3 µM. The same measure, in the same setting: the value for `Cc1cc(OCc2c(F)ccc(F)c2F)n2nc(C)c(C(=O)NCC(C)(N)C3CC3)c2c1` (racemic) [Example 13, rac-N-(2-Amino-2-cyclopropylpropyl)-2,5-dimethyl-7-[(2,3,6-trifluorobenzyl)oxy]pyrazolo[1,5-a]pyridine-3-carboxamide] was 1.0 µM; that for `Cc1cc(OCc2c(F)cccc2F)n2nc(C)c(C(=O)NCCN3CCN(C)CC3)c2c1` [Example 93, 7-[(2,6-Difluorobenzyl)oxy]-2,5-dimethyl-N-[2-(4-methylpiperazin-1-yl)ethyl]pyrazolo[1,5-a]pyridine-3-carboxamide] was 10 µM; that for `Cc1cc(OCc2c(F)cccc2F)n2nc(C)c(C(=O)N[C@@H]3CCNC3=O)c2c1` [Example 98, 7-[(2,6-Difluorobenzyl)oxy]-2,5-dimethyl-N-[(3R)-2-oxopyrrolidin-3-yl]pyrazolo[1,5-a]pyridine-3-carboxamide] was 3.0 µM. The same measure, in the same setting: the value for `Cc1cc(OCc2c(F)cccc2F)n2nc(C)c(C(=O)NCC3CCc4ccccc4N3)c2c1` (racemic) [Example 82, rac-7-[(2,6-Difluorobenzyl)oxy]-2,5-dimethyl-N-(1,2,3,4-tetrahydroquinolin-2-ylmethyl)pyrazolo[1,5-a]pyridine-3-carboxamide] was 1.0 µM; that for `CCCC(C)(N)CNC(=O)c1c(C)nn2c(OCc3cccc(F)c3F)cc(C)cc12` (racemic) [Example 158, rac-N-(2-Amino-2-methylpentyl)-7-[(2,3-difluorobenzyl)oxy]-2,5-dimethylpyrazolo[1,5-a]pyridine-3-carboxamide] was 1.0 µM; that for `Cc1cc(OCc2c(F)cccc2F)n2nc(C)c(C(=O)N[C@@H](CC(=O)O)CC(C)C)c2c1` [Example 38, (3R)-3-[({7-[(2,6-Difluorobenzyl)oxy]-2,5-dimethylpyrazolo[1,5-a]pyridin-3-yl}carbonyl)amino]-5-methylhexanoic Acid] was 3.0 µM.
